Data reported in ChEMBL document CHEMBL1201862, “PubChem BioAssay data set” (2004).
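96-well plates; 48 h exposure; 5 concentrations. Endpoints by linear interpolation between flanking doses. Not reached: highest tested concentration assigned. GI50 = concentration required for 50% inhibition of growth.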 Activity calls are given as the source filed them. Rule as the data show it: active = GI50 up to about 1.1 µM and inactive = higher.

Legend:
Assay in all cases: DTP human tumour cell line panel, 48 h
EKVX = system: EKVX
HT-29 = system: HT-29
KM12 = system: KM12
MCF7 = system: MCF7
MOLT-4 = system: MOLT-4
NCI-H226 = system: NCI-H226
NCI-H23 = system: NCI-H23
NCI-H460 = system: NCI-H460
NCI/ADR-RES = system: NCI/ADR-RES
SF-268 = system: SF-268
SF-539 = system: SF-539
SK-MEL-2 = system: SK-MEL-2
SK-MEL-5 = system: SK-MEL-5
SNB-19 = system: SNB-19
SW-620 = system: SW-620
UACC-257 = system: UACC-257
DLD-1 = system: DLD-1
DMS-114 = system: DMS-114
DMS-273 = system: DMS-273
SNB-78 = system: SNB-78

Measured: GI50

O=C1CCC[C@H]2O[C@@H](COC(=O)c3ccccc3)C[C@H]2O1
inactive: EKVX > 100 µM | HT-29 > 100 µM | KM12 > 100 µM | MCF7 > 100 µM | MOLT-4 > 100 µM | NCI-H226 > 100 µM | NCI-H23 > 100 µM | NCI-H460 > 100 µM | NCI/ADR-RES > 100 µM | SF-268 > 100 µM | SF-539 > 100 µM | SK-MEL-2 > 100 µM | SK-MEL-5 > 100 µM | SNB-19 > 100 µM | SW-620 > 100 µM | UACC-257 > 100 µM

C1=C(c2ccccc2)SC(N2CCCCC2)S1 (stereo not drawn)
inactive: DLD-1 > 100 µM | DMS-114 60.1 µM | DMS-273 > 100 µM | EKVX 86.7 µM | HT-29 > 100 µM | KM12 > 100 µM | MOLT-4 81.5 µM | NCI-H226 > 100 µM | NCI-H23 > 100 µM | NCI-H460 > 100 µM | SF-268 > 100 µM | SF-539 > 100 µM | SK-MEL-2 > 100 µM | SNB-19 > 100 µM | SNB-78 > 100 µM | SW-620 > 100 µM | UACC-257 > 100 µM

CN(C)C(=O)N(CCCl)N=O
inactive: DLD-1 > 100 µM | DMS-114 > 100 µM | DMS-273 > 100 µM | EKVX > 100 µM | HT-29 > 100 µM | KM12 > 100 µM | MCF7 > 100 µM | MOLT-4 > 100 µM | NCI-H226 > 10 µM | NCI-H23 > 100 µM | NCI-H460 > 100 µM | NCI/ADR-RES > 100 µM | SF-268 > 100 µM | SF-539 > 100 µM | SK-MEL-2 > 100 µM | SK-MEL-5 > 100 µM | SNB-19 > 100 µM | SNB-78 > 100 µM | SW-620 > 100 µM | UACC-257 > 100 µM
